# Molecular target: T1, PERK (Homo sapiens, UniProt Q9NZJ5)
# T1 sequence (Q9NZJ5 30-1116): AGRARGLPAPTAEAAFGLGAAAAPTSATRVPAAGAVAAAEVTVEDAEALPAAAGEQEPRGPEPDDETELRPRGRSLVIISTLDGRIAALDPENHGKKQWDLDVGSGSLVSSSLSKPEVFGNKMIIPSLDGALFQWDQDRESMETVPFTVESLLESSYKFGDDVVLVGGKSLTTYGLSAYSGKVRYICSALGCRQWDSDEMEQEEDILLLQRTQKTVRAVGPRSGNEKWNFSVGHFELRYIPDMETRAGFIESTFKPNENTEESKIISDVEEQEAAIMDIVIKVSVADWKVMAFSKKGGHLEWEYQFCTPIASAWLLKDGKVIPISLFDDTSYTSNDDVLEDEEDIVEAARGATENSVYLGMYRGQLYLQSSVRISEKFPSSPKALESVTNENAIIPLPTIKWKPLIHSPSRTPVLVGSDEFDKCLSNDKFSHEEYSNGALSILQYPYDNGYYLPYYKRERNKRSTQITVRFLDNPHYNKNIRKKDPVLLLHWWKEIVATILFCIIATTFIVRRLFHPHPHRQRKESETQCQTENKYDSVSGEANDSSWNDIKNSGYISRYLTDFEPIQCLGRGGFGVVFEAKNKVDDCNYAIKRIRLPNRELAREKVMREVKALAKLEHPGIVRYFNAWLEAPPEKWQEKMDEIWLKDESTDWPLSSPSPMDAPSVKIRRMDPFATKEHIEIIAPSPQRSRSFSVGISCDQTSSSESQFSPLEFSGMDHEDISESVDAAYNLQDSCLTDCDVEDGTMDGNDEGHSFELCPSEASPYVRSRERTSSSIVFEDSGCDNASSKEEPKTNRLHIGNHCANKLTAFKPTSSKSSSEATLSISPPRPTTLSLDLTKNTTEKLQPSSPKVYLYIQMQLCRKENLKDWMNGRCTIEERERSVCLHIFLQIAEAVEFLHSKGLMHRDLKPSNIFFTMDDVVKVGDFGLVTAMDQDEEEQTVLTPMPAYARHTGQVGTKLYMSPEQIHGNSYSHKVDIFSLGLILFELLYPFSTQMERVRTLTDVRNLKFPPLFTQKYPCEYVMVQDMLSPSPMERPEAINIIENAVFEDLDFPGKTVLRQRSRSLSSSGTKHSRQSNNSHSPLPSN
# Assay: PERK enzyme assay (HTRF)
# Type: biochemical
# Conditions: 500 μM ATP; at least one experimental run; read-out: PERK Enzyme (500 μM ATP) IC50
# Method in brief: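 GST-PERK (0.75 nM final) pre-incubated 30–60 min with compound (≤1% DMSO) in HEPES pH 7.5/CHAPS/MgCl2/DTT, then 500 μM ATP and 40 nM biotin-eIF2α added for 60 min. EDTA quench; HTRF detection of phospho-eIF2α (Eu anti-rabbit/streptavidin-APC) read after 2 h; IC50 from concentration series.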
row,IC50,SMILES
1,6.1 nM,"CN1C(=O)N(c2ccc(-c3cn(C)c4ncnc(N)c34)c(Cl)c2)CC1c1cc(F)cc(F)c1 (single isomer, unassigned) [Example 127, 1-(4-(4-amino-7-methyl-7H-pyrrolo[2,3-d]pyrimidin-5-yl)-3-chlorophenyl)-4-(3,5-difluorophenyl)-3-methylimidazolidin-2-one]"
2,17.8 nM,"CN1C(=O)N(c2ccc(-c3cn(C4CC4)c4ncnc(N)c34)c(F)c2)CC1c1ccc(F)cc1F (single isomer, unassigned) [Example 137, 1-(4-(4-amino-7-cyclopropyl-7H-pyrrolo[2,3-d]pyrimidin-5-yl)-3-fluorophenyl)-4-(2,4-difluorophenyl)-3-methylimidazolidin-2-one]"
3,988 nM,"CN1C(=O)N(c2ccc(-c3cn(C4CC4)c4ncnc(N)c34)c(F)c2)CC1c1ccc(F)cc1F (single isomer, unassigned) [Example 154, 1-(4-(4-amino-7-cyclopropyl-7H-pyrrolo[2,3-d]pyrimidin-5-yl)-3-fluorophenyl)-4-(2,4-difluorophenyl)-3-methylimidazolidin-2-one]"

# Same assay, conditions: PERK Enzyme (500 μM ATP) IC50; at least one experimental run; read-out: PERK Activity
row,IC50,SMILES
1,< 100 nM,"CN1C(=O)N(c2ccc(-c3cn(C)c4ncnc(N)c34)c(Cl)c2)CC1c1cc(F)cc(F)c1 (single isomer, unassigned) [Example 127, 1-(4-(4-amino-7-methyl-7H-pyrrolo[2,3-d]pyrimidin-5-yl)-3-chlorophenyl)-4-(3,5-difluorophenyl)-3-methylimidazolidin-2-one]"
2,< 100 nM,"CN1C(=O)N(c2ccc(-c3cn(C)c4ncnc(N)c34)c(Cl)c2)CC1c1cc(F)cc(F)c1 (single isomer, unassigned) [Example 128, 1-(4-(4-amino-7-methyl-7H-pyrrolo[2,3-d]pyrimidin-5-yl)-3-chlorophenyl)-4-(3,5-difluorophenyl)-3-methylimidazolidin-2-one]"
3,< 100 nM,"CN1C(=O)N(c2ccc(-c3cn(C4CC4)c4ncnc(N)c34)c(Cl)c2)CC1c1cc(F)cc(F)c1 (single isomer, unassigned) [Example 129, 1-(4-(4-amino-7-cyclopropyl-7H-pyrrolo[2,3-d]pyrimidin-5-yl)-3-chlorophenyl)-4-(3,5-difluorophenyl)-3-methylimidazolidin-2-one]"
4,< 100 nM,"CN1C(=O)N(c2ccc(-c3cn(C4CC4)c4ncnc(N)c34)c(Cl)c2)CC1c1cc(F)cc(F)c1 (single isomer, unassigned) [Example 130, 1-(4-(4-amino-7-cyclopropyl-7H-pyrrolo[2,3-d]pyrimidin-5-yl)-3-chlorophenyl)-4-(3,5-difluorophenyl)-3-methylimidazolidin-2-one]"
5,< 100 nM,"CN1C(=O)N(c2ccc(-c3cn(C)c4ncnc(N)c34)c(F)c2)CC1c1ccc(F)c(Cl)c1 (single isomer, unassigned) [Example 133, 1-(4-(4-amino-7-methyl-7H-pyrrolo[2,3-d]pyrimidin-5-yl)-3-fluorophenyl)-4-(3-chloro-4-fluorophenyl)-3-methylimidazolidin-2-one]"
6,< 100 nM,"CN1C(=O)N(c2ccc(-c3cn(C4CC4)c4ncnc(N)c34)c(F)c2)CC1c1ccc(F)c(Cl)c1 (single isomer, unassigned) [Example 134, 1-(4-(4-amino-7-cyclopropyl-7H-pyrrolo[2,3-d]pyrimidin-5-yl)-3-fluorophenyl)-4-(3-chloro-4-fluorophenyl)-3-methylimidazolidin-2-one]"
7,100 to 1000 nM,"Cc1nc(N)c2c(-c3ccc(N4CC(c5ccc(Cl)nc5)N(C)C4=O)cc3F)cn(C)c2n1 (single isomer, unassigned) [Example 136, 1-(4-(4-amino-2,7-dimethyl-7H-pyrrolo[2,3-d]pyrimidin-5-yl)-3-fluorophenyl)-4-(6-chloropyridin-3-yl)-3-methylimidazolidin-2-one]"
8,< 100 nM,"CN1C(=O)N(c2ccc(-c3cn(C4CC4)c4ncnc(N)c34)c(F)c2)CC1c1ccc(F)cc1F (single isomer, unassigned) [Example 137, 1-(4-(4-amino-7-cyclopropyl-7H-pyrrolo[2,3-d]pyrimidin-5-yl)-3-fluorophenyl)-4-(2,4-difluorophenyl)-3-methylimidazolidin-2-one]"
9,< 100 nM,"CN1C(=O)N(c2ccc(-c3cn(C)c4ncnc(N)c34)c(F)c2)CC1c1cc(F)cc(F)c1F (single isomer, unassigned) [Example 140, 1-(4-(4-amino-7-methyl-7H-pyrrolo[2,3-d]pyrimidin-5-yl)-3-fluorophenyl)-3-methyl-4-(2,3,5-trifluorophenyl)imidazolidin-2-one]"
10,100 to 1000 nM,"CN1C(=O)N(c2ccc(-c3cn(C)c4ncnc(N)c34)c(F)c2)CC1c1cc(F)cc(F)c1F (single isomer, unassigned) [Example 141, 1-(4-(4-amino-7-methyl-7H-pyrrolo[2,3-d]pyrimidin-5-yl)-3-fluorophenyl)-3-methyl-4-(2,3,5-trifluorophenyl)imidazolidin-2-one]"
11,< 100 nM,"CN1C(=O)N(c2ccc(-c3cn(C4CC4)c4ncnc(N)c34)c(F)c2)CC1c1cc(F)cc(F)c1F (single isomer, unassigned) [Example 142, 1-(4-(4-amino-7-cyclopropyl-7H-pyrrolo[2,3-d]pyrimidin-5-yl)-3-fluorophenyl)-3-methyl-4-(2,3,5-trifluorophenyl)imidazolidin-2-one]"
12,100 to 1000 nM,"CN1C(=O)N(c2ccc(-c3cn(C4CC4)c4ncnc(N)c34)c(F)c2)CC1c1cc(F)cc(F)c1F (single isomer, unassigned) [Example 143, 1-(4-(4-amino-7-cyclopropyl-7H-pyrrolo[2,3-d]pyrimidin-5-yl)-3-fluorophenyl)-3-methyl-4-(2,3,5-trifluorophenyl)imidazolidin-2-one]"
13,< 100 nM,"CN1C(=O)N(c2ccc(-c3cn(C4CC4)c4ncnc(N)c34)c(F)c2)CC1c1cc(F)ccc1F (single isomer, unassigned) [Example 145, 1-(4-(4-amino-7-cyclopropyl-7H-pyrrolo[2,3-d]pyrimidin-5-yl)-3-fluorophenyl)-4-(2,5-difluorophenyl)-3-methylimidazolidin-2-one]"
14,< 100 nM,"CN1C(=O)N(c2ccc(-c3cn(C4CC4)c4ncnc(N)c34)c(F)c2)CC1c1cc(F)ccc1F (single isomer, unassigned) [Example 146, 1-(4-(4-amino-7-cyclopropyl-7H-pyrrolo[2,3-d]pyrimidin-5-yl)-3-fluorophenyl)-4-(2,5-difluorophenyl)-3-methylimidazolidin-2-one]"
15,< 100 nM,"CN1C(=O)N(c2ccc(-c3cn(C)c4ncnc(N)c34)c(F)c2)CC1c1cc(F)ccc1F (single isomer, unassigned) [Example 150, 1-(4-(4-amino-7-methyl-7H-pyrrolo[2,3-d]pyrimidin-5-yl)-3-fluorophenyl)-4-(2,5-difluorophenyl)-3-methylimidazolidin-2-one]"
16,100 to 1000 nM,"CN1C(=O)N(c2ccc(-c3cn(C)c4ncnc(N)c34)c(F)c2)CC1c1cc(F)ccc1F (single isomer, unassigned) [Example 151, 1-(4-(4-amino-7-methyl-7H-pyrrolo[2,3-d]pyrimidin-5-yl)-3-fluorophenyl)-4-(2,5-difluorophenyl)-3-methylimidazolidin-2-one]"
17,< 100 nM,"CN1C(=O)N(c2ccc(-c3cn(C4CC4)c4ncnc(N)c34)c(F)c2)CC1c1cccc(Cl)c1 (single isomer, unassigned) [Example 152, 1-(4-(4-amino-7-cyclopropyl-7H-pyrrolo[2,3-d]pyrimidin-5-yl)-3-fluorophenyl)-4-(3-chlorophenyl)-3-methylimidazolidin-2-one]"
18,100 to 1000 nM,"CN1C(=O)N(c2ccc(-c3cn(C4CC4)c4ncnc(N)c34)c(F)c2)CC1c1cccc(Cl)c1 (single isomer, unassigned) [Example 153, 1-(4-(4-amino-7-cyclopropyl-7H-pyrrolo[2,3-d]pyrimidin-5-yl)-3-fluorophenyl)-4-(3-chlorophenyl)-3-methylimidazolidin-2-one]"
19,100 to 1000 nM,"CN1C(=O)N(c2ccc(-c3cn(C4CC4)c4ncnc(N)c34)c(F)c2)CC1c1ccc(F)cc1F (single isomer, unassigned) [Example 154, 1-(4-(4-amino-7-cyclopropyl-7H-pyrrolo[2,3-d]pyrimidin-5-yl)-3-fluorophenyl)-4-(2,4-difluorophenyl)-3-methylimidazolidin-2-one]"
